From patent US9169241B2, “Quinolinyloxyphenylsulfonamides” (Max-Planck-Gesellschaft Zur Forderung der Wissenschaften …, priority 2009, dated 2015)
Read-outs that look alike come from different tables or passages of the source.

Key:
U138 = assay: Apoptosis assay (Cellomics, nucleus condensation); format: cell-based; conditions: Table III, read-out: Apoptosis induction in U138
Method in brief: (§1)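 Cells at 5000 per well were stained live with Hoechst 33342 and imaged on an automated fluorescence microscope after 24 h and 48 h compound exposure (12.5 μM down to 0.39 μM, twofold steps; DMSO control). Per-nucleus intensity variation quantified nuclear condensation; cell counts were also recorded.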

SF763 = assay: Apoptosis assay (Cellomics, nucleus condensation); format: cell-based; conditions: Table III, read-out: Apoptosis induction in SF763
Method in brief: as §1

SF126 [1] = assay: Apoptosis assay (Cellomics, nucleus condensation); format: cell-based; conditions: Homo sapiens, SF-126, Table III, read-out: Apoptosis induction in SF126
Method in brief: as §1

C8161 = assay: Apoptosis assay (Cellomics, nucleus condensation); format: cell-based; conditions: Homo sapiens, Table III, read-out: Apoptosis induction in C8161
Method in brief: as §1

U118 [2] = assay: Apoptosis assay (Cellomics, nucleus condensation); format: cell-based; conditions: Table III, read-out: Apoptosis induction in U118
Method in brief: as §1

Hs578T [3] = assay: Apoptosis assay (Cellomics, nucleus condensation); format: cell-based; conditions: Homo sapiens, Hs-578T, Table III, read-out: Apoptosis induction in Hs578T
Method in brief: as §1

indicated cell line = assay: Wound healing migration assay (Table IV); format: cell-based; conditions: compounds at 12.5, 6.25, 3.125 μM, 48 h-72 h
Method in brief: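 Cells seeded at 150000/24 well, grown to monolayer overnight, scratched with a pipette tip, then treated with compound at 12.5, 6.25 or 3.125 μM versus DMSO. Stopped by crystal violet fixation at 48-72 h once control wounds closed; IC50 taken as 50% wound size between t0 and t48 or t72.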

SF126 [4] = assay: Cell vitality assay (ATP assay, CellTiter-Glo); format: cell-based; conditions: Homo sapiens, SF-126
Method in brief: (§2)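 1000 cells/well incubated 72 h with compound at 12.5 down to 0.195 μM (twofold steps) or DMSO control. Viability measured as cellular ATP by CellTiter-Glo luminescence; IC50 taken as the concentration giving 50% of the DMSO-control ATP level.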

U118 [5] = assay: Cell vitality assay (ATP assay, CellTiter-Glo); format: cell-based
Method in brief: as §2

Hs578T [6] = assay: Cell vitality assay (ATP assay, CellTiter-Glo); format: cell-based; conditions: Homo sapiens, Hs-578T, 72 h
Method in brief: as §2

Hs578T [7] = assay: Matrigel outgrowth assay/branching assay; format: cell-based; conditions: Homo sapiens, Hs-578T; HS578T cell line; Table Ib; read-out: Total branching inhibition in Matrigel HS578T
Method in brief: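 Read-out: microscopic images of invasive branching structures at 48 h, 72 h and 96 h. Cells sat on a 3 mg/ml Matrigel layer (set 1 h, 37° C) with compound at 3.125, 1.56 and 0.78 μM or DMSO. A concentration counts as positive only with complete branching inhibition.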

[8] = Homo sapiens, A 172, A172 cells, read-out: IC50 Wound healing Assay A172
[9] = Homo sapiens, SF-126, SF126 cells, read-out: IC50 Wound healing Assay SF126
[10] = Homo sapiens, C8161 cells, read-out: IC50 Wound healing Assay C8161
[11] = SF763 cells, read-out: IC50 Wound healing Assay SF763
[12] = U118 cells, read-out: IC50 Wound healing Assay U118
[13] = SF126, 72 h, Table IIa, read-out: IC50 ATP-Assay after 72 h SF126
[14] = U118, 72 h, Table IIa, read-out: IC50 ATP-Assay after 72 h U118
[15] = HS578T cell line, Table Ib, read-out: IC50 ATP-Assay HS578T after 72 h
[16] = Hs578T, Table IIa, read-out: IC50 ATP-Assay after 72 h Hs578T

SMILES: COc1cc2c(Oc3ccc(NS(=O)(=O)c4cc(F)ccc4F)cc3F)ccnc2cc1OCCCN1CCCCC1 [Example 1, 2,5-Difluoro-N-{3-fluoro-4-[6-methoxy-7-(3-piperidin-1-yl-propoxy)-quinolin-4-yloxy]-phenyl}-benzenesulfonamide]
- IC50 (U138): ≤ 12.5 µM
- IC50 (SF763): 12.5 to 50 µM
- IC50 (SF126 [1]): ≤ 12.5 µM
- IC50 (C8161): ≤ 12.5 µM
- IC50 (U118 [2]): ≤ 12.5 µM
- IC50 (Hs578T [3]): ≤ 12.5 µM
- IC50 (indicated cell line; [8]): ≤ 12.5 µM
- IC50 (indicated cell line; [9]): ≤ 12.5 µM
- IC50 (indicated cell line; [10]): ≤ 12.5 µM
- IC50 (indicated cell line; [11]): ≤ 12.5 µM
- IC50 (indicated cell line; [12]): ≤ 12.5 µM
- IC50 (SF126 [4]; [13]): ≤ 12.5 µM
- IC50 (SF126 [4]; cell vitality assay, SF126, Table IIb, read-out: IC50 SF126): ≤ 12.5 µM
- IC50 (U118 [5]; [14]): ≤ 12.5 µM
- IC50 (U118 [5]; cell vitality assay, U118, Table IIc, read-out: IC50 U118): ≤ 12.5 µM
- IC50 (Hs578T [6]; [15]): ≤ 12.5 µM
- IC50 (Hs578T [6]; [16]): 12.5 to 50 µM
- melting point: 206 to 208 °C
- IC50 (Hs578T [7]): ≤ 10 µM

SMILES: COc1cc2c(Oc3ccc(NS(=O)(=O)c4cccc(-c5ccccc5)c4)cc3F)ccnc2cc1OCCCN1CCCCC1 [Example 8, Biphenyl-3-sulfonic acid {3-fluoro-4-[6-methoxy-7-(3-piperidin-1-yl-propoxy)-quinolin-4-loxy]-phenyl}-amide]
- IC50 (U138): 12.5 to 50 µM
- IC50 (SF763): ≤ 12.5 µM
- IC50 (SF126 [1]): ≤ 12.5 µM
- IC50 (C8161): ≤ 12.5 µM
- IC50 (U118 [2]): ≤ 12.5 µM
- IC50 (Hs578T [3]): ≤ 12.5 µM
- IC50 (indicated cell line; [8]): ≤ 12.5 µM
- IC50 (indicated cell line; [9]): ≤ 12.5 µM
- IC50 (indicated cell line; [10]): 12.5 to 50 µM
- IC50 (indicated cell line; [11]): ≤ 12.5 µM
- IC50 (indicated cell line; [12]): ≤ 12.5 µM
- IC50 (SF126 [4]; [13]): ≤ 12.5 µM
- IC50 (U118 [5]; [14]): ≤ 12.5 µM
- IC50 (Hs578T [6]; [15]): 12.5 to 50 µM
- IC50 (Hs578T [6]; [16]): 12.5 to 50 µM
- melting point: 113 to 115 °C
- IC50 (Hs578T [7]): ≤ 10 µM

SMILES: COc1cc2c(Oc3ccc(NS(=O)(=O)c4cccc(Oc5ccccc5)c4)cc3F)ccnc2cc1OCCCN1CCCCC1 [Example 10, N-{3-Fluoro-4-[6-methoxy-7-(3-piperidin-1-yl-propoxy)-quinolin-4-yloxy]-phenyl}-3-phenoxy-benzenesulfonamide]
- IC50 (U138): ≤ 12.5 µM
- IC50 (SF763): 12.5 to 50 µM
- IC50 (SF126 [1]): 12.5 to 50 µM
- IC50 (C8161): ≤ 12.5 µM
- IC50 (U118 [2]): ≤ 12.5 µM
- IC50 (Hs578T [3]): ≤ 12.5 µM
- IC50 (indicated cell line; [8]): ≤ 12.5 µM
- IC50 (indicated cell line; [9]): ≤ 12.5 µM
- IC50 (indicated cell line; [10]): ≤ 12.5 µM
- IC50 (indicated cell line; [11]): ≤ 12.5 µM
- IC50 (indicated cell line; [12]): ≤ 12.5 µM
- IC50 (SF126 [4]; [13]): ≤ 12.5 µM
- IC50 (U118 [5]; [14]): ≤ 12.5 µM
- IC50 (Hs578T [6]; [15]): 12.5 to 50 µM
- IC50 (Hs578T [6]; [16]): 12.5 to 50 µM
- melting point: 146 to 147 °C
- IC50 (Hs578T [7]): ≤ 10 µM

SMILES: COc1cc2c(Oc3ccc(NS(=O)(=O)c4ccccc4[N+](=O)[O-])cc3F)ccnc2cc1OCCCN1CCN(C)CC1 [Example 21, N-(3-Fluoro-4-{6-methoxy-7-[3-(4-methyl-piperazin-1-yl)-propoxy]-quinolin-4-yloxy}-phenyl)-2-nitro-benzenesulfonamide]
- IC50 (U138): 12.5 to 50 µM
- IC50 (SF763): ≤ 12.5 µM
- IC50 (SF126 [1]): ≤ 12.5 µM
- IC50 (C8161): ≤ 12.5 µM
- IC50 (U118 [2]): ≤ 12.5 µM
- IC50 (Hs578T [3]): ≤ 12.5 µM
- IC50 (indicated cell line; [10]): ≤ 12.5 µM
- IC50 (indicated cell line; [11]): 12.5 to 50 µM
- IC50 (SF126 [4]; [13]): 12.5 to 50 µM
- IC50 (U118 [5]; [14]): 12.5 to 50 µM
- melting point: 125 to 128 °C
- IC50 (Hs578T [7]): ≤ 10 µM

SMILES: COc1cc2c(Oc3ccc(NS(=O)(=O)c4ccccc4OC(F)(F)F)cc3F)ccnc2cc1OCCCN1CCN(C)CC1 [Example 25, N-(3-Fluoro-4-{6-methoxy-7-[3-(4-methyl-piperazin-1-yl)-propoxy]-quinolin-4-yloxy}-phenyl)-2-trifluoromethoxy-benzenesulfonamide]
- IC50 (U138): ≤ 12.5 µM
- IC50 (SF763): ≤ 12.5 µM
- IC50 (SF126 [1]): ≤ 12.5 µM
- IC50 (C8161): ≤ 12.5 µM
- IC50 (U118 [2]): ≤ 12.5 µM
- IC50 (Hs578T [3]): ≤ 12.5 µM
- IC50 (indicated cell line; [10]): 12.5 to 50 µM
- IC50 (indicated cell line; [11]): 12.5 to 50 µM
- IC50 (SF126 [4]; [13]): ≤ 12.5 µM
- IC50 (U118 [5]; [14]): ≤ 12.5 µM
- IC50 (Hs578T [6]; [16]): ≤ 12.5 µM
- melting point: 86 to 90 °C
- IC50 (Hs578T [7]): ≤ 10 µM

SMILES: COc1cc2c(Oc3ccc(NS(=O)(=O)c4c(Cl)cccc4Cl)cc3F)ccnc2cc1OCCCN1CCN(C)CC1 [Example 32, 2,6-Dichloro-N-(3-fluoro-4-{6-methoxy-7-[3-(4-methyl-piperazin-1-yl)-propoxy]-quinolin-4-yloxy}-phenyl)-benzenesulfonamide]
- IC50 (U138): ≤ 12.5 µM
- IC50 (SF763): ≤ 12.5 µM
- IC50 (SF126 [1]): ≤ 12.5 µM
- IC50 (C8161): ≤ 12.5 µM
- IC50 (U118 [2]): ≤ 12.5 µM
- IC50 (Hs578T [3]): ≤ 12.5 µM
- IC50 (indicated cell line; [10]): ≤ 12.5 µM
- IC50 (indicated cell line; [11]): ≤ 12.5 µM
- IC50 (SF126 [4]; [13]): ≤ 12.5 µM
- IC50 (U118 [5]; [14]): ≤ 12.5 µM
- IC50 (Hs578T [6]; [16]): ≤ 12.5 µM
- melting point: 113 to 116 °C
- IC50 (Hs578T [7]): ≤ 10 µM

SMILES: COc1cc2c(Oc3c(Cl)cc(NS(=O)(=O)c4c(F)cccc4F)cc3Cl)ccnc2cc1OCCCN1CCN(C)CC1 [Example 88, N-(3,5-Dichloro-4-{6-methoxy-7-[3-(4-methyl-piperazin-1-yl)-propoxy]-quinolin-4-yloxy}-phenyl)-2,6-difluoro-benzenesulfonamide]
- IC50 (U138): ≤ 12.5 µM
- IC50 (SF763): ≤ 12.5 µM
- IC50 (SF126 [1]): ≤ 12.5 µM
- IC50 (C8161): ≤ 12.5 µM
- IC50 (U118 [2]): ≤ 12.5 µM
- IC50 (Hs578T [3]): ≤ 12.5 µM
- IC50 (indicated cell line; [10]): 12.5 to 50 µM
- IC50 (indicated cell line; [11]): ≤ 12.5 µM
- IC50 (SF126 [4]; [13]): 12.5 to 50 µM
- IC50 (U118 [5]; [14]): ≤ 12.5 µM
- IC50 (Hs578T [6]; [16]): ≤ 12.5 µM
- IC50 (Hs578T [7]): 10 to 25 µM

SMILES: COc1cc2c(Oc3ccc(NS(=O)(=O)c4ccccc4C(F)(F)F)cc3F)ccnc2cc1OCCCNC1CCOCC1 [Example 95, N-(3-Fluoro-4-{6-methoxy-7-[3-(tetrahydro-pyran-4-ylamino)-propoxy]-quinolin-4-yloxy}-phenyl)-2-trifluoromethyl-benzenesulfonamide]
- IC50 (U138): ≤ 12.5 µM
- IC50 (SF763): ≤ 12.5 µM
- IC50 (SF126 [1]): ≤ 12.5 µM
- IC50 (C8161): ≤ 12.5 µM
- IC50 (U118 [2]): ≤ 12.5 µM
- IC50 (Hs578T [3]): ≤ 12.5 µM
- IC50 (indicated cell line; [10]): 12.5 to 50 µM
- IC50 (indicated cell line; [11]): 12.5 to 50 µM
- IC50 (SF126 [4]; [13]): ≤ 12.5 µM
- IC50 (U118 [5]; [14]): ≤ 12.5 µM
- IC50 (Hs578T [6]; [16]): 12.5 to 50 µM
- IC50 (Hs578T [7]): ≤ 10 µM
